{"source": "patent US20220249394A1", "about": "(priority 2019, published 2022)", "key": {"[1]": {"system": "ScNeuro 2a (ScN2a) cells producing abnormal prion protein (PrP^Sc)", "assay_type": "cell-based, mouse", "conditions": "24 hours culture with 0-40 mM HFIP, crystal violet staining, FIG. 1"}, "[2]": {"system": "Neuro 2a (N2a) cells producing normal prion protein (PrP^C)", "assay_type": "cell-based, mouse", "conditions": "24 hours culture with 0-40 mM HFIP, crystal violet staining, FIG. 1"}, "[3]": {"biological_target": "prion protein (PrP^C) in N2a cells (Mus musculus, UniProt P04925)", "sequence (P04925 23-230 limits assumed)": "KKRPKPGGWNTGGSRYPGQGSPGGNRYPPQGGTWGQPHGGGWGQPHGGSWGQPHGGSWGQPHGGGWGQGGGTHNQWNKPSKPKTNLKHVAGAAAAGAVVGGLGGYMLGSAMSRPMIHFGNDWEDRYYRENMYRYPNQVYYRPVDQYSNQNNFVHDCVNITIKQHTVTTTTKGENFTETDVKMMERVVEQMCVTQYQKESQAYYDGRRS", "assay_type": "cell-based", "conditions": "6 mM HFIP for 24 hours, protease K 10 μg/ml 37° C. 30 minutes, Western blotting, FIG. 2 #1 to #4"}}}
{"smiles": "OC(C(F)(F)F)C(F)(F)F", "note": "[HFIP, 1,1,1,3,3,3-hexafluoro-2-propanol]", "values": [{"measurement": "upper concentration limit at which ScN2a cells can survive", "setting": "[1]", "value": 20, "unit": "mM"}, {"measurement": "upper concentration limit of HFIP at which N2a cells can survive", "setting": "[2]", "value": 25, "unit": "mM"}, {"measurement": "degradation of protein by protease K", "setting": "[3]", "value": "degraded by protease K with or without the addition of HFIP"}]}
